In ChEMBL document CHEMBL1131418, “Antiviral oligo- and polyribonucleotides containing selected triazolo[2,3-a]purines” (J Med Chem, 1998):

Experiments:
[1] = Therapeutic index for anti-HIV activity against HIV-IIIB in CEM-SS cells; format: cell-based
MRC5 [2] = assay: Cytotoxic dose for anti-HCMV activity against AD-169 strain in MRC-5 cells; format: functional; details: Homo sapiens, read-out: CD50 (the source's name)
MRC5 [3] = assay: Inhibitory concentration for anti-HCMV activity against AD-169 strain in MRC-5 cells; format: functional, cell-based; details: Homo sapiens
[4] = Therapeutic index for anti-HCMV activity against AD-169 strain in MRC-5 cells; format: cell-based; details: human, mrc5

| SMILES | TI [1] | CC50 (MRC5 [2]) [µM] | IC50 (MRC5 [3]) [µM] | TI [4] |
| --- | --- | --- | --- | --- |
| CCN(CC)C(=S)[S][Na] [DITIOCARB SODIUM] | > 67 |  |  |  |
| Nc1nc(O)c2ncn(COC(CO)CO)c2n1 [GANCICLOVIR] |  | > 125 | 6.3 | > 20 |
